Columns and labels:
[1] = reported by Higgs et al., Biochemical Pharmacology 28 1959 (1979); cited from earlier work
[2] = "writhing syndrome" test for analgesic activity
Excerpt: A method employed for measuring the in vivo activity of the compounds of the present invention is the "writhing syndrome" test for analgesic activity as described by Seigmund, et al., Proc. Soc, Exp. Biol. and Med., 95:729 (1957) with modifications. Representative compounds of the present invention which are active when tested by the "writhing syndrome" test are: 2-(3-Amino-2-pyrazolin-1-yl)benzothiazole 2-(3-Amino-5-methyl-2-pyrazolin-1-yl)benzothiazole

Compound	anti-inflammatory activity [1]	analgesic activity in vivo, "writhing syndrome" test [2]
NC1=NN(c2cccc(C(F)(F)F)c2)CC1 [BW 755C, 3-amino-1-[m-(trifluoromethyl)phenyl]-2-pyrazoline]	anti-inflammatory activity	
NC1=NN(c2nc3ccccc3s2)CC1 [Example 11, 2-(3-Amino-2-pyrazolin-1-yl)benzothiazole]		active
CC1CC(N)=NN1c1nc2ccccc2s1 (stereo not drawn) [Example 13, 2-(3-Amino-5-methyl-2-pyrazolin-1-yl)benzothiazole]		active

From patent US4622401A, “Heterocyclic substituted-amino-pyrazolines” (American Cyanamid Company, priority 1982, dated 1986)
